{
  "source": "patent US10487116B2",
  "about": "“Immunotherapy against several tumors, such as lung cancer, including NSCLC” (IMMATICS BIOTECHNOLOGIES GMBH, priority 2013, dated 2019)",
  "key": {"HLA-DR haplotypes [1]": {"tested_on": "HLA-DR haplotypes", "assay": "Stability of the formed HLA-peptide complexes (REVEAL assay, 24 h at 37° C.)", "format": "binding, human", "conditions": "after 24 h at 37° C.; of 6 investigated HLA-peptide complexes", "experimental": "Besides the affinity of a peptide to a particular HLA molecule, the enduring stability of the formed HLA-peptide complex is crucial for the occurrence of an immune response. Accordingly presence of the formed HLA-peptide complex is measured after its incubation for 24 h at 37° C. Consequently the stability of the formed MHC-peptide complex is calculated as a ration of the binding scores at 24 h and the binding scores which are received right after the refolding (accordingly at time 0) in percent."}, "HLA-DR haplotypes [2]": {"tested_on": "HLA-DR haplotypes", "assay": "ProImmune REVEAL MHC-peptide binding assay, all investigated haplotypes", "set-up": "species or system human", "conditions": "of 7 investigated HLA haplotypes", "source_text": "The 7 investigated HLA-DR haplotypes are selected according to their frequencies in HLA-A*02 and HLA-A*24 positive North Americans population (Table 7.1 and 7.2)\n(§1) The ProImmune REVEAL® MHC-peptide binding assay determines the ability of each candidate peptide to bind to the selected HLA class II haplotype and stabilize the HLA-peptide complex. Thereby the candidate peptides are assembled in vitro with a particular HLA class II protein. The level of peptide incorporation into HLA molecules is measured by presence or absence of the native conformation of the assembled HLA-peptide complex at time 0 after completed refolding procedure (so called on-rate).\n(§2) The binding capacity of candidate peptide to a particular HLA molecule is compared to the one with known very strong binding properties (positive control) resulting in the corresponding REVEAL® […] binding score. The positive control peptide is selected and provided by ProImmune based on their experience individually for each HLA haplotype."}, "HLA-DR5": {"tested_on": "HLA-DR5", "assay": "ProImmune REVEAL MHC-peptide binding assay", "set-up": "species or system human", "conditions": "compared to the positive control peptide, time 0", "experimental": "as §1, §2"}, "HLA-DR4": {"tested_on": "HLA-DR4", "assay": "ProImmune REVEAL MHC-peptide binding assay", "set-up": "species or system human", "conditions": "compared to the positive control peptide, time 0", "experimental": "as §1, §2"}, "HLA-DR6": {"tested_on": "HLA-DR6", "assay": "ProImmune REVEAL MHC-peptide binding assay", "set-up": "species or system human", "experimental": "as §1, §2"}, "HLA-DR7": {"tested_on": "HLA-DR7", "assay": "ProImmune REVEAL MHC-peptide binding assay", "set-up": "species or system human", "conditions": "compared to the positive control peptide, time 0", "experimental": "as §1, §2"}, "HLA-DR3": {"tested_on": "HLA-DR3", "assay": "ProImmune REVEAL MHC-peptide binding assay", "set-up": "species or system human", "experimental": "as §1, §2"}, "HLA-DR1": {"tested_on": "HLA-DR1", "assay": "ProImmune REVEAL MHC-peptide binding assay", "set-up": "species or system human", "conditions": "compared to the positive control peptide, time 0", "experimental": "as §1, §2"}, "HLA-DR2": {"molecular_target": "T1, HLA-DR2 (Homo sapiens, UniProt P01903+P01911)", "T1 construct": "purchased ProImmune", "T1 sequence (P01903 26-254)": "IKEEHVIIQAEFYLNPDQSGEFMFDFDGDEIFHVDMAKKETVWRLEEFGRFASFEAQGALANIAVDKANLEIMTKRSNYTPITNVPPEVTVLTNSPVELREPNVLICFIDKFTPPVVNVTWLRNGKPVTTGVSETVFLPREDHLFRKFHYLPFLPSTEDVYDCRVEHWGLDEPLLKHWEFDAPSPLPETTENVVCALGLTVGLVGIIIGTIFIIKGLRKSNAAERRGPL", "T1 sequence (P01911 30-227 limits assumed)": "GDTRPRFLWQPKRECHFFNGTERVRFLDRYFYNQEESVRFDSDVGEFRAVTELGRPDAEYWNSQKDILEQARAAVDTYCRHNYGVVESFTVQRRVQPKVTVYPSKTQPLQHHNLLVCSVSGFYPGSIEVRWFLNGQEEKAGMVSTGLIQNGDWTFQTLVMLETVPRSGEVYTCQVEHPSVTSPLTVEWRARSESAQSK", "assay": "ProImmune REVEAL MHC-peptide binding assay", "conditions": "compared to the positive control peptide, time 0", "experimental": "as §1, §2"}, "[3]": {"tested_on": "colon carcinoma cells HCT-8", "conditions": "Wang et al., 2009a; cited from earlier work"}, "[4]": {"tested_on": "lung cancer cells NCI-H460", "conditions": "Wang et al., 2009a; cited from earlier work"}, "[5]": {"tested_on": "colon carcinoma cells HCT-15", "conditions": "Wang et al., 2009a; cited from earlier work"}, "CD4 T-cells": {"tested_on": "CD4 T-cells", "assay": "Intracellular cytokine staining (ICS) of CD4 T-cells in blood samples of vaccinated patients", "format": "in vivo, human", "conditions": "vaccination with IMA950 peptides, 16 patients", "experimental": "A conclusion on the immugenicity of a peptide based on its binding capacity to a HLA molecule can be made by comparing the binding score of this peptide to the one with known immunogenicity. Therefore, five well investigated peptides with determined immunogenicity were selected for this comparison. The immunogenicity of these peptides was determined ex vivo in blood samples of vaccinated patients using intracellular cytokine staining (ICS) CD4 T-cells.\nIn principle, ICS assays analyze the quality of specific T cells in terms of effector functions. Therefore, the peripheral mononuclear cells (PBMCs) were cultivated in vitro and subsequently restimulated by the peptide of interest, a reference peptide and a negative control (here MOCK).\nFollowing the restimulated cells were stained for FN-gamma, TNF-alpha, IL-2 and IL-10 production, as well as expression of the co-stimulatory molecule CD154. The counting of affected cells was performed on a flow cytometer (FIG. 7)."}, "prostate cancer cells": {"tested_on": "prostate cancer cells", "conditions": "Beckers et al., 2007; cited from earlier work"}, "HLA-A*0201": {"molecular_target": "HLA-A*0201 (Homo sapiens, UniProt P04439, D140Y/D185E/D98H/E176V/E277Q/G131W/G231S/I119V/I121R/I166T/I218V/L300P/L318F/N151K/N90K/P208A/P217A/Q86G/Q94H/R138H/R169H/T345S)", "assay": "UV-ligand exchange with ELISA of stabilized MHC complexes", "format": "binding", "conditions": "class symbol", "source_text": "Candidate peptides for the vaccines according to the present invention were further tested for immunogenicity by in vitro priming assays. The individual peptide-MHC complexes required for these assays were produced by UV-ligand exchange, where a UV-sensitive peptide is cleaved upon UV-irradiation, and exchanged with the peptide of interest as analyzed. Only peptide candidates that can effectively bind and stabilize the peptide-receptive MHC molecules prevent dissociation of the MHC complexes. To determine the yield of the exchange reaction, an ELISA was performed based on the detection of the light chain (β2m) of stabilized MHC complexes. The assay was performed as generally described in Rodenko et al. (Rodenko B, Toebes M, Hadrup S R, van Esch W J, Molenaar A M, Schumacher T N, Ovaa H. Generation of peptide-MHC class I complexes through UV-mediated ligand exchange. Nat Protoc. 2006; 1(3):1120-32.).\n96 well MAXISorp plates (NUNC) were coated over night with 2 ug/ml streptavidin in PBS at room temperature, washed 4× and blocked for 30 min at 37° C. in 2% BSA containing blocking buffer. Refolded HLA-A*0201/MLA-001 monomers served as standards, covering the range of 8-500 ng/ml. Peptide-MHC monomers of the UV-exchange reaction were diluted 100 fold in blocking buffer. Samples were incubated for 1 h at 37° C., washed four times, incubated with 2 ug/ml HRP conjugated anti-β2m for 1 h at 37° C., washed again and detected with TMB solution that is stopped with […]. Absorption was measured at 450 nm."}},
  "data": [
    {"compound": "TNGVIHVVDKLLYPADT (listed as Homo sapiens) [SEQ ID NO 77]", "values": [
      {"measurement": "HLA-peptide complexes stable", "setting": "HLA-DR haplotypes [1]", "result": 3},
      {"measurement": "HLA haplotypes with which a complex is formed", "setting": "HLA-DR haplotypes [2]", "result": 5},
      {"measurement": "Relative Binding Score HLA-DR5", "setting": "HLA-DR5", "result": 0.08},
      {"measurement": "Relative Binding Score HLA-DR4", "setting": "HLA-DR4", "result": 0.02},
      {"measurement": "binding to HLA-DR6", "setting": "HLA-DR6", "result": "did not bind"},
      {"measurement": "Relative Binding Score HLA-DR7", "setting": "HLA-DR7", "result": 0.47},
      {"measurement": "binding to HLA-DR3", "setting": "HLA-DR3", "result": "did not bind"},
      {"measurement": "Relative Binding Score HLA-DR1", "setting": "HLA-DR1", "result": 0.24},
      {"measurement": "Relative Binding Score HLA-DR2", "setting": "HLA-DR2", "result": 0.68}
    ]},
    {"compound": "CCCCCCCCCCCCCCOc1ccc(C(=O)O)o1", "note": "[TOFA, 5-tetradecyloxy-2-furoic acid]", "values": [
      {"measurement": "cytotoxicity", "setting": "[3]", "result": "cytotoxic"},
      {"measurement": "cytotoxicity", "setting": "[4]", "result": "cytotoxic"},
      {"measurement": "cytotoxicity", "setting": "[5]", "result": "cytotoxic"}
    ]},
    {"compound": "MET-005: class II peptide with known immunogenicity, IMA950 peptide (TFSYVDPVITSISPKYG) [reference compound]", "values": [
      {"measurement": "Relative Binding Score HLA-DR5", "setting": "HLA-DR5", "result": 0.12},
      {"measurement": "Relative Binding Score HLA-DR4", "setting": "HLA-DR4", "result": 5.89},
      {"measurement": "Relative Binding Score HLA-DR7", "setting": "HLA-DR7", "result": 3.69},
      {"measurement": "Relative Binding Score HLA-DR1", "setting": "HLA-DR1", "result": 0.87},
      {"measurement": "Relative Binding Score HLA-DR2", "setting": "HLA-DR2", "result": 0.28},
      {"measurement": "immune response", "setting": "CD4 T-cells", "result": 100, "unit": "%"}
    ]},
    {"compound": "BIR-002: class II peptide with known immunogenicity, IMA950 peptide (TLGEFLKLDRERAKN) [reference compound]", "values": [
      {"measurement": "Relative Binding Score HLA-DR5", "setting": "HLA-DR5", "result": 103.9},
      {"measurement": "Relative Binding Score HLA-DR4", "setting": "HLA-DR4", "result": 6.12},
      {"measurement": "Relative Binding Score HLA-DR7", "setting": "HLA-DR7", "result": 0.27},
      {"measurement": "Relative Binding Score HLA-DR1", "setting": "HLA-DR1", "result": 40.06},
      {"measurement": "Relative Binding Score HLA-DR2", "setting": "HLA-DR2", "result": 0.05},
      {"measurement": "immune response", "setting": "CD4 T-cells", "result": 100, "unit": "%"}
    ]},
    {"compound": "INNYTPDMNREDVDYAIR (listed as Homo sapiens) [SEQ ID NO 76]", "values": [
      {"measurement": "HLA-peptide complexes stable", "setting": "HLA-DR haplotypes [1]", "result": 2},
      {"measurement": "HLA haplotypes with which a complex is formed", "setting": "HLA-DR haplotypes [2]", "result": 4},
      {"measurement": "Relative Binding Score HLA-DR5", "setting": "HLA-DR5", "result": 0.04},
      {"measurement": "Relative Binding Score HLA-DR4", "setting": "HLA-DR4", "result": 0.74},
      {"measurement": "binding to HLA-DR6", "setting": "HLA-DR6", "result": "did not bind"},
      {"measurement": "Relative Binding Score HLA-DR7", "setting": "HLA-DR7", "result": 0},
      {"measurement": "binding to HLA-DR3", "setting": "HLA-DR3", "result": "did not bind"},
      {"measurement": "Relative Binding Score HLA-DR1", "setting": "HLA-DR1", "result": 0.04},
      {"measurement": "Relative Binding Score HLA-DR2", "setting": "HLA-DR2", "result": 2.43}
    ]},
    {"compound": "CO[C@H]1CCCC[C@@H](c2ccccc2)OC(=O)[C@@H](C)[C@@]2(O)O[C@H]([C@@H](C)[C@H](O)[C@H]2OC)[C@@H](C)/C=C/[C@H]1OC", "note": "[soraphen A]", "values": [
      {"measurement": "fatty acid oxidation", "setting": "prostate cancer cells", "result": "enhances fatty acid oxidation"},
      {"measurement": "lipogenesis", "setting": "prostate cancer cells", "result": "blocks lipogenesis"}
    ]},
    {"compound": "AILDTLYEV (listed as Homo sapiens) [SEQ ID NO 21]", "values": [
      {"measurement": "Exchange yield", "setting": "HLA-A*0201", "result": "++ (20%-49% = ++)"}
    ]},
    {"compound": "KLFGEKTYL (listed as Homo sapiens) [SEQ ID NO 26]", "values": [
      {"measurement": "Exchange yield", "setting": "HLA-A*0201", "result": "++ (20%-49% = ++)"}
    ]},
    {"compound": "AMATESILHFA (listed as Homo sapiens) [SEQ ID NO 86]", "values": [
      {"measurement": "Exchange yield", "setting": "HLA-A*0201", "result": "+++ (50%-70%, +++)"}
    ]},
    {"compound": "ALMDKEGLTAL (listed as Homo sapiens) [SEQ ID NO 9]", "values": [
      {"measurement": "Exchange yield", "setting": "HLA-A*0201", "result": "++++ (>70 = ++++)"}
    ]},
    {"compound": "ALLRTVVSV (listed as Homo sapiens) [SEQ ID NO 33]", "values": [
      {"measurement": "Exchange yield", "setting": "HLA-A*0201", "result": "++++ (>70 = ++++)"}
    ]}
  ]
}
